In patent publication US20170151204A1 (priority 2011, published 2017):
“Also recorded” adds a separate entry of the source.

How the values were obtained:
human neutrophils [1] = experiment: TLR2 protein expression on human neutrophils (flow cytometry); format: cell-based; settings: LTB4 100 nM, 15-120 min, flow cytometry (FIG. 2)
Method: In FIG. 2A, cells were left untreated (1) or were stimulated with LTB4 (100 nM) for 15 (2), 30 (3), 60 (4) or 120 min (5). Cells were then fixed in paraformaldehyde and TLR2 expression was assessed by flow cytometry. Background cellular autofluorescence is represented by the dotted line (6).

[2] = tested on: Influenza A/PR/8/34 H1N1 (IAV); experiment: IAV-infected mice: lung viral load, IL-6 and histology; format: in vivo; settings: 50 pfu IAV intranasally; iv. daily for three days, LTB4 1 μg/kg, NacMDP 2 mg/kg; four days post-infection (FIG. 40)
Method: In FIG. 39, MEFs were generated and plated as described in Example VII. Cells were infected with IAV (0.1 m.o.i.) alone (−), LTB4 alone (100 nM) or with a combination of LTB4 and NacMDP (0.1 μg/ml) for 24 hours. Following infection, cell culture supernatants were harvested and assayed for viral load determination by standard plaque assay in MDCK cells. For in vivo assessment of the antiviral activity of LTB4 and NacMDP, 4-6 weeks old C57131/6 female mice (n=4/group) were infected intranasally (in.) with 50 plaque-forming units (pfu) of IAV (FIG. 40). Starting at day one post-infection, mice were treated daily for three days with either saline, LTB4 alone (1 μg/kg) or with a combination of LTB4 and NacMDP (2 mg/kg), via the intravenous (iv.) route. Four days post-infection, animals were sacrificed and viral loads were determined from triturated lungs by standard plaque assay in MDCK cells. […] In FIG. 39, * p≦0.05. […]
To further investigate the in vivo consequences associated with the treatment of IAV-infected mice with a combination of LTB4 and the NOD2 agonist NacMDP, 4-6 weeks old C57131/6 female mice (n=4/group) were infected as described in Example IX and treated with either saline or a combination of LTB4 and NacMDP also as described. In FIG. 41, four-day infected animals were sacrificed and IL-6 titers were determined from triturated lungs by ELISA. […]

[3] = tested on: Influenza A/PR/8/34 H1N1 (IAV); format: cell-based; settings: MEF, IAV 0.1 m.o.i., 24 hours, LTB4 100 nM, NacMDP 0.1 μg/ml (FIG. 39)
[4] = tested on: mouse embryogenic fibroblasts (MEF); format: cell-based; settings: uninfected MEF, 6 hours, NacMDP 0.1, 1 and 10 μg/ml, LTB4 100 nM (FIG. 37)
human neutrophils [5] = experiment: Cy3-CpG-ODN binding assay on human neutrophils (flow cytometry); format: cell-based; settings: LTB4 pretreatment 60 min, then Cy3-CpG-ODN 2216 for 4 h; with or without inhibitory CpG-ODN (FIG. 4E-F)
Method: (§1) In FIG. 4A, cells were left untreated (dotted line) or were stimulated with LTB4 (100 nM) for 15, 30, 60 or 120 min. Background cellular autofluorescence is represented by shaded histogram. Cells were then fixed in paraformaldehyde, permeabilized in methanol, and TLR9 expression was assessed by flow cytometry. In FIG. 4B, cells were pre-treated for 30 min with the high affinity LTB4 receptor antagonist U75302 (10 μM) prior to stimulation with LTB4 for 60 min. Cells were then fixed in paraformaldehyde, permeabilized in methanol, and TLR9 expression was assessed by flow cytometry. In FIGS. 4C-D, cells were stimulated with LTB4 or leukotrienes C4 (LTC4), leukotriene D4 (LTD4), the complement protein C5a or IL-8 for 60 min. Cells were then fixed in paraformaldehyde, permeabilized in methanol, and TLR9 expression was assessed by flow cytometry. In FIG. 4E, neutrophils were pretreated with LTB4 for 60 min. Following this pretreatment, neutrophils were incubated in the presence of CpG-ODN 2216 sequence (5′-G*G*GGGACGATCGTCG*G* G*G*G*G*-3′) (SEQ ID NO:1) that were tagged with cyanine-3 (Cy3) fluorochrome. After an incubation for 4 h with Cy3-CpG-ODN sequences, neutrophils were extensively washed with phosphate buffer and Cy3 expression (corresponding to the degree in CpG-ODN binding on human neutrophils) was assessed by flow cytometry. […]. […]

IAV-infected MEF = format: cell-based, mouse
IPS-1 = experiment: IPS-1-dependent promoter activation assay (luciferase) in BLT1-expressing HEK-293T cells; format: cell-based; settings: IPS-1-expressing vector
human neutrophils [6] = experiment: TLR mRNA expression by human neutrophils (RT-PCR); format: cell-based; settings: LTB4 100 nM or 1 μM, two hours
Method: Peripheral blood neutrophils or peripheral blood mononuclear cells were isolated from healthy donors and were purified by centrifugation over Ficoll™ separation medium gradient as already described (Larochelle B, Blood. 1998;92:291-299). Human neutrophils (2×10^6) were resuspended in culture medium and stimulated with a placebo solution (0.45% w/v NaCl containing 0.25% w/v dextrose, NS) or LTB4 (100 nM or 1 μM in placebo solution) for two hours. Following stimulation, total RNA was extracted and RT-PCR was performed using specific primers for human TLR2 (FIG. 1) and TLR7-9 (FIG. 3).

[7] = tested on: mouse embryonic fibroblasts (MEFs); experiment: IFNβ secretion by wild type mouse embryonic fibroblasts; format: cell-based; settings: MEFs from wild type mice, LTB4 alone or with Sendai virus (FIG. 36)
human neutrophils [8] = experiment: TLR9 protein expression by human neutrophils (flow cytometry); format: cell-based
Method: as §1

RIG-I = experiment: RIG-I-dependent promoter activation assay (luciferase) in BLT1-expressing HEK-293T cells; format: cell-based; settings: RIG-I-expressing vector

CCCCC/C=C\C[C@@H](O)/C=C/C=C/C=C\[C@@H](O)CCCC(=O)O [LTB4, 5S,12R-6,8,10,14(Z,E,E,Z)-eicosatetraenoic acid]
TLR2 expression (protein) (human neutrophils [1]): enhanced TLR2 expression; also recorded: upregulated TLR2 and TLR9 protein expression
viral load in lungs (in vivo) [2]: significant decrease in viral load
viral load (in vitro) [3]: significant decrease in viral load
IL-6 secretion [4]: do not induce significant IL-6 secretion compared to background
CpG-ODN binding on human neutrophils (Cy3 expression) (human neutrophils [5]): enhances CpG-ODN binding on human neutrophils in a TLR9-dependent manner
IL-6 secretion (IAV-infected MEF): significantly enhance IL-6 secretion
NF-κB promoter activity (luciferase) (IPS-1; LTB4 stimulation 24 h (FIG. 30)): induces NF-κB as well as IFN-β promoter activity
IFN-β promoter activity (luciferase) (IPS-1; LTB4 stimulation 24 h (FIG. 31)): induces NF-κB as well as IFN-β promoter activity
expression of TLR2 mRNA (human neutrophils [6]; RT-PCR (FIG. 1)): stimulated by LTB4 in a dose-dependent form
mRNA expression of TLR7-9 (human neutrophils [6]; RT-PCR (FIG. 3)): stimulated in a dose-dependent form
secretion of IFNβ [7]: induces secretion of IFNβ
TLR9 expression compared to LTC4, LTD4, C5a and IL-8 (human neutrophils [8]; 60 min stimulation (FIG. 4C-D)): potent inducer of TLR9 expression
TLR9 expression (protein) (human neutrophils [8]; LTB4 100 nM, 15, 30, 60 or 120 min, with or without BLT1 antagonist U75302 10 μM (FIG. 4A-B)): induces TLR9 expression on human neutrophils in a time-dependent manner; also recorded: upregulated TLR2 and TLR9 protein expression
NF-κB promoter activity (luciferase) (RIG-I; LTB4 stimulation 24 h (FIG. 28)): enhances NF-κB as well as IFN-β promoter activity
IFN-β promoter activity (luciferase) (RIG-I; LTB4 stimulation 24 h (FIG. 29)): enhances NF-κB as well as IFN-β promoter activity

CC(=O)N[C@H]1C(O)O[C@H](CO)[C@@H](O)[C@@H]1O[C@H](C)C(=O)N[C@@H](C)C(=O)N[C@H](CCC(=O)O)C(N)=O (some centres unmarked) [NacMDP, N-acetyl muramyl dipeptide, reference compound]
IL-6 secretion [4]: do not induce significant IL-6 secretion compared to background
IL-6 secretion (IAV-infected MEF): significantly enhance IL-6 secretion
